From patent publication US7803801B2, “Aminopyridine compounds having Syk inhibitory activity” (Japan Tobacco, Inc., priority 2005, dated 2010)
Like-named read-outs stand apart in the source and are kept apart here.

Legend:
[1] = target: GST-Syk Full Protein (human) (Homo sapiens, UniProt P43405); assay: Syk kinase inhibition test (HTRF method); type: biochemical
Outline: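 HTRF read-out: after EDTA termination and 1 h with XL665-streptavidin and Eu-anti-phosphotyrosine, the 665/620 nm ratio was measured. The reaction ran 30 min at 20–25 °C with final 6.4 nM human GST-Syk, 250 nM biotinylated peptide, 100 μM ATP, pH 7.0 HEPES buffer, 2% DMSO.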

[2] = test system: cultured human mast cells; assay: Degranulation inhibition test using cultured human mast cells (IgE cross-linking, β-Hexosaminidase release); type: cell-based; conditions: Mast cell, cultured human mast cells, read-out: human degranulation ave. IC50
Outline: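 Degranulation was triggered by anti-hIgE (10 μg/mL final, 30 min, 37 °C) after a 10-min compound pretreatment (DMSO 0.1%) of cord-blood CD34+-derived mast cells primed 5 days with IL-4 and IgE. β-Hexosaminidase in supernatant was measured with p-nitrophenyl-GlcNAc substrate (A405), expressed against water-lysed total; IC50 (M).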

[3] = HTRF, 100 μM ATP, 30 min room temperature, average, read-out: sykHTRF ave IC50
[4] = anti-hIgE stimulation, β-Hexosaminidase index, average
[5] = Tables 1-x, compounds A, read-out: sykHTRF ave IC50
[6] = Tables 2-x, thiophene compounds B, read-out: sykHTRK ave IC50
[7] = Tables 2-x, thiophene compounds B

Row | Structure (SMILES) | IC50 [1, 3] [nM] | IC50 [2, 4] [nM] | also measured
1 | Cc1ccnc(Nc2cccc(-c3cnc(N4CCC(CC(=O)O)C4)s3)n2)c1 (stereo not shown) [Compound A-588, (1-{5-[6-(4-methylpyridin-2-ylamino)pyridin-2-yl]thiazol-2-yl}pyrrolidin-3-yl)acetic acid] | – | – | IC50 [1, 5]: < 100 nM; IC50 ([2]; Tables 1-x, compounds A): > 1000 nM
2 | Cc1ccnc(Nc2cccc(-c3ccc(CN(C)C)s3)n2)c1 [Compound B-14] | – | – | IC50 [1, 6]: 100 to 1000 nM; IC50 [2, 7]: 100 to 1000 nM
3 | C[C@H](O)c1ncc(-c2cccc(Nc3cc(OCCO)ccn3)n2)s1 [Compound A-344, (S)-1-(5-{6-[4-(2-hydroxyethoxy)pyridin-2-ylamino]pyridin-2-yl}thiazol-2-yl)ethanol] | < 100 | < 100 | –
4 | CNc1ncc(-c2cccc(Nc3cc(C)ccn3)n2)s1 [Compound A-426, N-methyl-N-{5-[6-(4-methylpyridin-2-ylamino)pyridin-2-yl]thiazol-2-yl}amine] | < 100 | 100 to 1000 | –
5 | CC(O)c1ccc(-c2cccc(Nc3cc(CCO)ccn3)n2)s1 (stereo not shown) [Compound B-55, 1-(5-{6-[4-(2-hydroxyethyl)pyridin-2-ylamino]pyridin-2-yl}thiophen-2-yl)ethanol] | – | – | IC50 [1, 6]: < 100 nM; IC50 [2, 7]: 100 to 1000 nM
6 | CCC(=O)Nc1nc(C)c(-c2cccc(Nc3cc(C)ccn3)n2)s1 [Compound A-19, N-{4-methyl-5-[6-(4-methylpyridin-2-ylamino)pyridin-2-yl]thiazol-2-yl}propionamide] | < 100 | 100 to 1000 | –
7 | Cc1ccnc(Nc2cccc(-c3ccc(/C(N)=N/O)s3)n2)c1 [Compound B-60, N-hydroxy-5-[6-(4-methylpyridin-2-ylamino)pyridin-2-yl]thiophene-2-carboxyamidine] | – | – | IC50 [1, 6]: < 100 nM; IC50 [2, 7]: 100 to 1000 nM
8 | C/C(=N\O)c1ccc(-c2cccc(Nc3cc(Cl)ccn3)n2)s1 [Compound B-75, 1-{5-[6-(4-chloropyridin-2-ylamino)pyridin-2-yl]thiophen-2-yl}ethanone oxime] | – | – | IC50 [1, 6]: < 100 nM; IC50 [2, 7]: 100 to 1000 nM
9 | C[C@H](O)c1ncc(-c2cccc(Nc3cc(C4(C)OCCO4)ccn3)n2)s1 [Compound A-335, (S)-1-(5-{6-[4-(2-methyl-[1,3]dioxolan-2-yl)pyridin-2-ylamino]pyridin-2-yl}thiazol-2-yl)ethanol] | < 100 | 100 to 1000 | –
10 | Cc1ccnc(Nc2cccc(-c3cnc(N4CCOCC4)s3)n2)c1 [Compound A-417, N-(4-methylpyridin-2-yl)-N-[6-(2-morpholin-4-ylthiazol-5-yl)pyridin-2-yl]amine] | – | – | IC50 [1, 5]: < 100 nM; IC50 ([2]; Tables 1-x, compounds A): 100 to 1000 nM
11 | Cc1ccnc(Nc2cccc(-c3cnc(CCC4CCC(C(=O)O)CC4)s3)n2)c1 (stereo not shown) [Compound A-612, 4-(2-{5-[6-(4-methylpyridin-2-ylamino)pyridin-2-yl]thiazol-2-yl}ethyl)cyclohexanecarboxylic acid] | – | – | IC50 [1, 5]: < 100 nM; IC50 ([2]; Tables 1-x, compounds A): > 1000 nM
12 | COc1ccnc(Nc2cccc(-c3ccc(C(C)=O)s3)n2)c1 [Compound B-17, 1-{5-[6-(4-methoxypyridin-2-ylamino)pyridin-2-yl]thiophen-2-yl}ethanone] | – | – | IC50 [1, 6]: < 100 nM; IC50 [2, 7]: 100 to 1000 nM
13 | Cc1ccnc(Nc2cccc(-c3cnc(C4CCN(C(=O)N5CCC(O)CC5)CC4)s3)n2)c1 [Compound A-251] | 100 to 1000 | 100 to 1000 | –
14 | CON(C)C(=O)c1ncc(-c2cccc(Nc3cc(C)ccn3)n2)s1 [Compound A-46, N-methoxy-N-methyl-5-[6-(4-methylpyridin-2-ylamino)pyridin-2-yl]thiazole-2-carboxamide] | < 100 | 100 to 1000 | –
15 | Cc1ccnc(Nc2cccc(-c3cnc(Cc4ccc(CO)cc4)s3)n2)c1 [Compound A-243, (4-{5-[6-(4-methylpyridin-2-ylamino)pyridin-2-yl]thiazol-2-ylmethyl}phenyl)methanol] | < 100 | 100 to 1000 | –
16 | CC(=O)N1CC[C@@H](N(C)c2ncc(-c3cccc(Nc4cc(C)ccn4)n3)s2)C1 [Compound A-563, 1-[(R)-3-(N-methyl-N-{5-[6-(4-methylpyridin-2-ylamino)pyridin-2-yl]thiazol-2-yl}amino)pyrrolidin-1-yl]ethanone] | – | – | IC50 [1, 5]: < 100 nM; IC50 ([2]; Tables 1-x, compounds A): 100 to 1000 nM
17 | CC(=O)NC1CCN(Cc2ncc(-c3cccc(Nc4cc(C)ccn4)n3)s2)CC1 [Compound A-210] | > 1000 | > 1000 | –
18 | CC(=O)NCCN(C)c1ncc(-c2cccc(Nc3cc(C)ccn3)n2)s1 [Compound A-508, N-[2-(N′-methyl-N′-{5-[6-(4-methylpyridin-2-ylamino)pyridin-2-yl]thiazol-2-yl}amino)ethyl]acetamide] | – | – | IC50 [1, 5]: < 100 nM; IC50 ([2]; Tables 1-x, compounds A): 100 to 1000 nM
19 | Cc1ccnc(Nc2cccc(-c3cnc(N4CCN(C=O)CC4)s3)n2)c1 [Compound A-410] | – | – | IC50 [1, 5]: 100 to 1000 nM; IC50 ([2]; Tables 1-x, compounds A): < 100 nM
20 | CC(=O)c1ccc(-c2cccc(Nc3cc(NC(C)C)ccn3)n2)s1 [Compound B-63] | – | – | IC50 [1, 6]: > 1000 nM; IC50 [2, 7]: > 1000 nM
21 | Cc1ccnc(Nc2cccc(-c3ccc(C(=O)NC(C)(C)CC(=O)O)s3)n2)c1 [Compound B-101] | – | – | IC50 [1, 6]: 100 to 1000 nM; IC50 [2, 7]: > 1000 nM
22 | Cc1ccnc(Nc2cccc(-c3cnc(CN4CCN(c5ccc(O)cc5)CC4)s3)n2)c1 [Compound A-382] | – | – | IC50 [1, 5]: 100 to 1000 nM; IC50 ([2]; Tables 1-x, compounds A): 100 to 1000 nM
23 | Cc1ccnc(Nc2cccc(-c3cnc([C@@H]4COC(C)(C)O4)s3)n2)c1 [Compound A-365] | 100 to 1000 | 100 to 1000 | –
24 | CC(=O)OC(Cc1ccc(O)cc1)c1ncc(-c2cccc(Nc3cc(C)ccn3)n2)s1 (stereo not shown) [Compound A-366] | 100 to 1000 | 100 to 1000 | –
25 | Cc1ccnc(Nc2cccc(-c3cnc(C(=O)NCCC(=O)O)s3)n2)c1 [Compound A-148, 3-({5-[6-(4-methylpyridin-2-ylamino)pyridin-2-yl]thiazole-2-carbonyl}amino)propionic acid] | < 100 | > 1000 | –
26 | Cc1ccnc(Nc2cccc(-c3cnc([C@H]4CC[C@H](CNC(=O)CO)CC4)s3)n2)c1 [Compound A-235, 2-hydroxy-N-(trans-4-{5-[6-(4-methylpyridin-2-ylamino)pyridin-2-yl]thiazol-2-yl}cyclohexylmethyl)acetamide] | < 100 | 100 to 1000 | –
27 | Cc1ccnc(Nc2cccc(-c3ccc(C(=O)N(C)C)s3)n2)c1 [Compound B-22] | – | – | IC50 [1, 6]: 100 to 1000 nM; IC50 [2, 7]: > 1000 nM
28 | CCC(=O)c1ccc(-c2cccc(Nc3cc(C)ccn3)n2)s1 [Compound B-48] | – | – | IC50 [1, 6]: 100 to 1000 nM; IC50 [2, 7]: > 1000 nM

Continued, in another order:

Row | IC50 [1, 3] [nM] | IC50 [2, 4] [nM] | Structure (SMILES) | also measured
29 | 100 to 1000 | 100 to 1000 | CC(=O)Nc1ccc(C[C@H](NC(C)=O)c2ncc(-c3cccc(Nc4cc(C)ccn4)n3)s2)cc1 [Compound A-179] | –
30 | 100 to 1000 | > 1000 | Cc1ccnc(Nc2cccc(-c3cnc(COCC(=O)N4C[C@@H](O)[C@@H](O)C4)s3)n2)c1 [Compound A-374] | –
31 | < 100 | 100 to 1000 | Cc1ccnc(Nc2cccc(-c3cnc(CCC4CCC(O)CC4)s3)n2)c1 (stereo not shown) [Compound A-173, 4-(2-{5-[6-(4-methylpyridin-2-ylamino)pyridin-2-yl]thiazol-2-yl}ethyl)cyclohexanol] | –
32 | < 100 | 100 to 1000 | Cc1ccnc(Nc2cccc(-c3cnc(N(C)C[C@H]4CC[C@H](C(=O)O)CC4)s3)n2)c1 [Compound A-16, trans-4-[(N-methyl-N-{5-[6-(4-methylpyridin-2-ylamino)pyridin-2-yl]thiazol-2-yl}amino)methyl]cyclohexanecarboxylic acid] | –
33 | 100 to 1000 | > 1000 | Cc1ccnc(Nc2cccc(-c3cnc(C4CCN(C(=O)C5CCNCC5)CC4)s3)n2)c1 [Compound A-292] | –
34 | < 100 | 100 to 1000 | Cc1ccnc(Nc2cccc(-c3cnc(C4CCN(C(=O)CO)CC4)s3)n2)c1 [Compound A-187, 2-hydroxy-1-(4-{5-[6-(4-methylpyridin-2-ylamino)pyridin-2-yl]thiazol-2-yl}piperidin-1-yl)ethanone] | –
35 | 100 to 1000 | 100 to 1000 | CC(=O)NCCc1ncc(-c2cccc(Nc3cc(C)ccn3)n2)s1 [Compound A-256] | –
36 | 100 to 1000 | 100 to 1000 | Cc1ccnc(Nc2cccc(-c3cnc([C@H]4CC[C@H](C(=O)N5CCC(N(C)C)C5)CC4)s3)n2)c1 (stereo partly shown) [Compound A-287] | –
37 | < 100 | > 1000 | Cc1ccnc(Nc2cccc(-c3cnc([C@H]4CC[C@H](C(=O)N5CC[C@@H](O)C5)CC4)s3)n2)c1 [Compound A-241, ((R)-3-hydroxypyrrolidin-1-yl)-(trans-4-{5-[6-(4-methylpyridin-2-ylamino)pyridin-2-yl]thiazol-2-yl}cyclohexyl)metanone] | –
38 | 100 to 1000 | 100 to 1000 | Cc1ccnc(Nc2cccc(-c3cnc(CCN)s3)n2)c1 [Compound A-245] | –
39 | < 100 | 100 to 1000 | CC(=O)O[C@@H](C)c1ncc(-c2cccc(Nc3cc(C)ccn3)n2)s1 [Compound A-25, acetic acid(S)-1-{5-[6-(4-methylpyridin-2-ylamino)pyridin-2-yl]thiazol-2-yl}ethyl ester] | –
40 | < 100 | > 1000 | Cc1ccnc(Nc2cccc(-c3cnc(CCC4CCNCC4)s3)n2)c1 [Compound A-258, N-(4-methylpyridin-2-yl)-N-{6-[2-(2-piperidin-4-ylethyl)thiazol-5-yl]pyridin-2-yl}amine] | –
41 | 100 to 1000 | > 1000 | CCOC(=O)C1CCN(Cc2ncc(-c3cccc(Nc4cc(C)ccn4)n3)s2)CC1 [Compound A-167] | –
